Laboratory results: PubChem BioAssay AID2060511 (Molecular Pharmacology Branch, DTP, NCI, 2025)
pIC50: −log10 of the molar value.

Tested on: 422866-222-R5-J1-PDC spheroids with HUVEC/MSC, viability
Assay: Anticancer human tumor 422866-222-R5-J1-PDC patient-derived pancreatic adenocarcinoma cell line growth inhibition [GQUAD]
Conditions: for pIC50: curve of first compound; for viability, T/C: stronger effect = lower value; active = viability on the fitted dose curve at most 10% of control; inactive = the rest
Summary of the method: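 Tumor cells were grown as complex spheroids with HUVEC endothelial cells and mesenchymal stem cells as stroma. G-quadruplex stabilizers were combined with targeted agents over half-log dilutions from near the clinical Cmax, or from 10 microM.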

[1] = second compound 0.0316 µM, first compound 0.0316 µM
[2] = second compound 0.0316 µM, first compound 0.1 µM
[3] = second compound 0.0316 µM, first compound 0.316 µM
[4] = second compound 0.0316 µM, first compound 1 µM
[5] = second compound 0.0316 µM, first compound 3.16 µM
[6] = second compound 0.0316 µM, first compound 10 µM
[7] = second compound 0.1 µM, first compound 0.0316 µM
[8] = second compound 0.1 µM, first compound 0.1 µM
[9] = second compound 0.1 µM, first compound 0.316 µM
[10] = second compound 0.1 µM, first compound 1 µM
[11] = second compound 0.1 µM, first compound 3.16 µM
[12] = second compound 0.1 µM, first compound 10 µM
[13] = second compound 0.316 µM, first compound 0.0316 µM
[14] = second compound 0.316 µM, first compound 0.1 µM
[15] = second compound 0.316 µM, first compound 0.316 µM
[16] = second compound 0.316 µM, first compound 1 µM
[17] = second compound 0.316 µM, first compound 3.16 µM
[18] = second compound 0.316 µM, first compound 10 µM
[19] = second compound 1 µM, first compound 0.0316 µM
[20] = second compound 1 µM, first compound 0.1 µM
[21] = second compound 1 µM, first compound 0.316 µM
[22] = second compound 1 µM, first compound 1 µM
[23] = second compound 1 µM, first compound 3.16 µM
[24] = second compound 1 µM, first compound 10 µM
[25] = second compound 3.16 µM, first compound 0.0316 µM
[26] = second compound 3.16 µM, first compound 0.1 µM
[27] = second compound 3.16 µM, first compound 0.316 µM
[28] = second compound 3.16 µM, first compound 1 µM
[29] = second compound 3.16 µM, first compound 3.16 µM
[30] = second compound 3.16 µM, first compound 10 µM
[31] = second compound 10 µM, first compound 0.0316 µM
[32] = second compound 10 µM, first compound 0.1 µM
[33] = second compound 10 µM, first compound 0.316 µM
[34] = second compound 10 µM, first compound 1 µM
[35] = second compound 10 µM, first compound 3.16 µM
[36] = second compound 10 µM, first compound 10 µM
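Note: spheroids exposed to compounds for seven days before reading.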
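Throughout, for viability, T/C: percent viability relative to DMSO vehicle control taken as 100%.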

O=C(c1cc(Cc2n[nH]c(=O)c3ccccc23)ccc1F)N1CCN(C(=O)C2CC2)CC1 + Cc1cnc(CNC(=O)c2c(=O)c3ccc(N4CCCN(C)CC4)nc3n3c2sc2ccccc23)cn1
inactive: viability, T/C [1] 108% | viability, T/C [2] 89% | viability, T/C [3] 84.8% | viability, T/C [4] 83.4% | viability, T/C [5] 80.5% | viability, T/C [6] 65.2% | viability, T/C [7] 91.9% | viability, T/C [8] 84.4% | viability, T/C [9] 80.5% | viability, T/C [10] 83.7% | viability, T/C [11] 80.2% | viability, T/C [12] 77.6% | viability, T/C [13] 74% | viability, T/C [14] 77.9% | viability, T/C [15] 78.8% | viability, T/C [16] 84% | viability, T/C [17] 85.2% | viability, T/C [18] 77.1% | viability, T/C [19] 76.2% | viability, T/C [20] 76.6% | viability, T/C [21] 84% | viability, T/C [22] 76.5% | viability, T/C [23] 80.3% | viability, T/C [24] 70.4% | viability, T/C [25] 83.3% | viability, T/C [26] 73.7% | viability, T/C [27] 83.2% | viability, T/C [28] 91.2% | viability, T/C [29] 83.6% | viability, T/C [30] 76.5% | viability, T/C [31] 70% | viability, T/C [32] 79.4% | viability, T/C [33] 77.8% | viability, T/C [34] 72.7% | viability, T/C [35] 89.5% | viability, T/C [36] 69.2%
< 5.00: pIC50 (second compound 0.0316 µM) | pIC50 (second compound 0.1 µM) | pIC50 (second compound 0.316 µM) | pIC50 (second compound 1 µM) | pIC50 (second compound 3.16 µM) | pIC50 (second compound 10 µM)

Cc1cccc(N(C)C(=O)C2C(O)CCN2c2nc(C)cc(C(F)(F)F)c2C#N)c1 (stereo unspecified) + CN(C)c1ccc(Nc2c3ccc(NC(=O)CCN4CCCC4)cc3nc3cc(NC(=O)CCN4CCCC4)ccc23)cc1
< 5.00: pIC50 (second compound 0.0316 µM) | pIC50 (second compound 0.1 µM) | pIC50 (second compound 0.316 µM) | pIC50 (second compound 1 µM) | pIC50 (second compound 3.16 µM) | pIC50 (second compound 10 µM)
inactive: viability, T/C [1] 119% | viability, T/C [2] 98.6% | viability, T/C [3] 104% | viability, T/C [4] 88.3% | viability, T/C [5] 96.6% | viability, T/C [6] 107% | viability, T/C [7] 92.1% | viability, T/C [8] 81% | viability, T/C [9] 105% | viability, T/C [10] 80.1% | viability, T/C [11] 102% | viability, T/C [12] 99.5% | viability, T/C [13] 97.8% | viability, T/C [14] 69.4% | viability, T/C [15] 80.6% | viability, T/C [16] 86.2% | viability, T/C [17] 103% | viability, T/C [18] 111% | viability, T/C [19] 84.4% | viability, T/C [20] 86.1% | viability, T/C [21] 80.7% | viability, T/C [22] 91.7% | viability, T/C [23] 101% | viability, T/C [24] 93.2% | viability, T/C [25] 77.9% | viability, T/C [26] 70.4% | viability, T/C [27] 79.7% | viability, T/C [28] 85.6% | viability, T/C [29] 88.8% | viability, T/C [30] 93.6% | viability, T/C [31] 72.6% | viability, T/C [32] 90.5% | viability, T/C [33] 98.3% | viability, T/C [34] 82.4% | viability, T/C [35] 82.4% | viability, T/C [36] 85%

CC1COCCN1c1cc(-c2ccnn2C)c2ccnc(-c3ccn[nH]3)c2n1 (stereo unspecified) + Cc1[nH]c2ccc(F)cc2c1-c1nc2c3cccnc3c3ncccc3c2[nH]1
inactive: viability, T/C [1] 84.4% | viability, T/C [2] 58.8% | viability, T/C [3] 46.1% | viability, T/C [4] 42% | viability, T/C [5] 52.8% | viability, T/C [6] 87.2% | viability, T/C [7] 83.3% | viability, T/C [8] 64.9% | viability, T/C [9] 41.6% | viability, T/C [10] 33.7% | viability, T/C [11] 50% | viability, T/C [12] 93.7% | viability, T/C [13] 101% | viability, T/C [14] 58.1% | viability, T/C [15] 45.3% | viability, T/C [16] 36.8% | viability, T/C [17] 66% | viability, T/C [18] 75% | viability, T/C [19] 80.9% | viability, T/C [20] 51.9% | viability, T/C [21] 41.1% | viability, T/C [22] 37.5% | viability, T/C [23] 75.3% | viability, T/C [24] 86.6% | viability, T/C [25] 60.6% | viability, T/C [26] 55.9% | viability, T/C [27] 41.5% | viability, T/C [28] 42.6% | viability, T/C [29] 73.2% | viability, T/C [30] 91.5% | viability, T/C [31] 62.8% | viability, T/C [32] 57.8% | viability, T/C [33] 43.1% | viability, T/C [34] 47.1% | viability, T/C [35] 82.8% | viability, T/C [36] 84.2%
< 5.00: pIC50 (second compound 0.0316 µM) | pIC50 (second compound 0.1 µM) | pIC50 (second compound 0.316 µM)
7.50: pIC50 (second compound 1 µM) | pIC50 (second compound 3.16 µM) | pIC50 (second compound 10 µM)
